In patent publication EP1026237B1, “Use of an inhibitor of Tau/neurofilament protein kinase PK40” (Massachusetts Institute Of Technology, priority 1991, dated 1993):
Several values for one entry are separate records, joined by “and”; a condition that tells them apart may be missing. Equal entries are not always repeated. One block for each molecule: values may come before it.

Legend:
[1] = system: PK40; experiment: 32P kinase assay, ATP dependence and inhibition of PK40 activity with dephosphorylated NF-M as substrate; format: biochemical, bovine; details: for relative activity [%] of PK40: % of control
Procedure: (§1) An alternative method for assaying the phosphorylating activity of the kinases was by ^32P assays. Radioactive assays in the same buffer system as for immunoassays contained 5 µg of HTP-purified native NF-triplet as substrate (3µg of substrate proteins other than NFs) and 150-250 cpm/pmole gamma-^32P-ATP. Incubation times were 15 minutes at 37°C for activities up to about 1 pmole/min/assay, since the assay responses were linear within these time intervals. Assays were stopped by cooling on ice, addition of 20 µl 25 mM EDTA and immediate transfer of the mixture onto glass filters (Whatman GF/A) wetted with 10% TCA/2% sodium pyrophosphate (PPA). The glass filters were washed twice for 1 hour and once for at least 3 hours in 10% TCA/2% PPA and finally in ethanol and were air-dried. Radioactivity was assessed by scintillation counting (Beckman LS 230) with 5 ml "Liquiscint" (National Diagnostics) for 20 minutes. Assays were routinely carried out in triplicate except for some duplicate assays in a few explicitly mentioned cases; a control assay lacking NFs was subtracted from the mean value.
The ATP dependence and inhibition of the activities of PK40 and PK36 were determined at 2 mM Mg^2+ with soluble dephosphorylated NF-M as second substrate to avoid uncertainties arising from the aggregation state of NF-triplet in suspension. The optima were at 0.5 - 1 mM ATP for both kinases. Apparent Km values for ATP of both kinases were estimated from Woolf-Hanes plots (Dixon and Webb, 1979) for a range of ATP concentrations sufficiently below the onset of inhibition. […] The apparent Km of PK36 was approximately 50 µM.

[2] = system: PK36; experiment: 32P kinase assay, ATP dependence and inhibition of PK36 activity with dephosphorylated NF-M as substrate; format: biochemical, bovine; details: % of control
Procedure: as §1, with “Incubation times were 15 minutes at 37°C for activities up to about 1 pmole/min/assay, since the assay responses were linear within these time intervals. Assays were stopped by cooling on ice, addition of 20 µl 25 mM EDTA and immediate transfer of the mixture onto glass filters (Whatman GF/A) wetted with 10% TCA/2% sodium pyrophosphate (PPA).” left out

[3] = target: KSP-phosphorylating kinases; experiment: Immuno-dotblot assay (SMI-31/SMI-34) of crude enzyme with dephosphorylated NF-triplet; format: biochemical, bovine; details: ATP [5mM]
Procedure: The preferred method for the immunoassay for detecting KSP-phosphorylating kinases is as follows. Dephosphorylated NF-triplet protein was incubated with the 35-45% ammonium sulfate fraction of the brain supernatant (see section B.). Immuno-dotblot assays were performed in 50 mM HEPES, pH 7.0, 2 mM MgCl2, […], 2 mM DTT in a total volume of 30 µl with 5 µg of dephosphorylated native NF-triplet or 1.2 µg of dephosphorylated pure subunits NF-M or NF-H as substrates together with a control assay lacking NFs. After incubation at 37°C for 18 hours, assays were diluted to 100 µl with 10 mM PBS, pH 7.2, and aliquots of 50 µl were spotted on nitrocellulose (0.22µm, Schleicher and Schüll). Blots were blocked by 1 hour incubation with 3% BSA in 10mM PBS, pH 7.2, and washed once in 0.5% Triton-X100/10 mM PBS. Antibodies were diluted in sterile 10 mM PBS, pH 7.2, 0.5% Triton-X100, 10% fetal calf serum. Blots were incubated with SMI mAbs for at least 2 hours. The blots were then washed five times. Mouse mAbs were detected by reaction with horseradish-peroxidase-linked goat-anti-mouse antibody (Cappel Co.) in 1:200 dilution and by staining with 0.05% 4-chloro-1-naphthol (Sigma) and 0.05% H2O2 in 50 mM TBS, pH 7.5, 33% ethanol for 5-20 minutes. All incubations and washes were at room temperature. Incubations were sealed in plastic bags with 50 µl of solution/cm^2 membrane. […]

[4] = target: kinase PK40 (bovine brain) (bovine); experiment: cell-based or functional assay

Molecule: [Cl-].[Na+] [NaCl, sodium chloride]
- relative activity [%] of PK40 ([1]; NaCl 150mM, 15 min, 150000 µM): 27% and 27±1.8%
- relative activity [%] of PK36 ([2]; NaCl 150mM, 15 min, 150000 µM): 40% and 40±0.8%

Molecule: ATP
- relative activity [%] of PK40 ([1]; 5mM Mg^2, 5mM ATP): 78±7.1%
- inhibition of PK40 by an excess of ATP ([1]; ATP in relatively small excess over Mg^2+): strongly inhibited
- Km ([1]; PK40, 2 mM Mg^2+, Woolf-Hanes plots, mean ± S.D. of three determinations at three NF-M concentrations, read-out: apparent Km value for ATP): 93 ± 12 µM
- relative activity [%] of PK36 ([2]; 5mM Mg^2, 5mM ATP): 38±2.2%
- kinase activity (reconstitution of SMI-31 and SMI-34 epitopes) [3]: inhibited

- relative activity [%] at Walsh Inhibitor 1.5 [M, as printed] (% of the control) [4]: 107
- relative activity [%] at Walsh Inhibitor 4.5 [M, as printed] (% of the control) [4]: 102
- relative activity [%] at Walsh Inhibitor 45 [M, as printed] (% of the control) [4]: 101
Molecule: Walsh inhibitor
